Assay results from PubChem BioAssay AID1918931 (Molecular Pharmacology Branch, DTP, NCI, 2023).

Tested on: 138582-337-R-J1-PDC complex spheroid viability
Experiment: Anticancer human tumor 138582-337-R-J1-PDC patient-derived Merkel cell tumor cell line growth inhibition
Conditions: for IC50: curve of first compound; for viability, T/C: stronger effect = lower value
Procedure, shortened: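 Complex spheroids of tumor cells with HUVEC and human MSCs, exposed to iadademstat combined with other agents. Each agent tested in half-log steps from near clinical Cmax (else 10 microM top), DMSO ≤0.25%.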

[1] = second compound 0.1 µM, first compound 0.00949 µM
[2] = second compound 0.1 µM, first compound 0.03 µM
[3] = second compound 0.1 µM, first compound 0.0949 µM
[4] = second compound 0.1 µM, first compound 0.3 µM
[5] = second compound 0.1 µM, first compound 0.949 µM
[6] = second compound 0.1 µM, first compound 3 µM
[7] = second compound 0.316 µM, first compound 0.00949 µM
[8] = second compound 0.316 µM, first compound 0.03 µM
[9] = second compound 0.316 µM, first compound 0.0949 µM
[10] = second compound 0.316 µM, first compound 0.3 µM
[11] = second compound 0.316 µM, first compound 0.949 µM
[12] = second compound 0.316 µM, first compound 3 µM
[13] = second compound 1 µM, first compound 0.00949 µM
[14] = second compound 1 µM, first compound 0.03 µM
[15] = second compound 1 µM, first compound 0.0949 µM
[16] = second compound 1 µM, first compound 0.3 µM
[17] = second compound 1 µM, first compound 0.949 µM
[18] = second compound 1 µM, first compound 3 µM
[19] = second compound 3.16 µM, first compound 0.00949 µM
[20] = second compound 3.16 µM, first compound 0.03 µM
[21] = second compound 3.16 µM, first compound 0.0949 µM
[22] = second compound 3.16 µM, first compound 0.3 µM
[23] = second compound 3.16 µM, first compound 0.949 µM
[24] = second compound 3.16 µM, first compound 3 µM
[25] = second compound 10 µM, first compound 0.00949 µM
[26] = second compound 10 µM, first compound 0.03 µM
[27] = second compound 10 µM, first compound 0.0949 µM
[28] = second compound 10 µM, first compound 0.3 µM
[29] = second compound 10 µM, first compound 0.949 µM
[30] = second compound 10 µM, first compound 3 µM
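Throughout, for viability, T/C: 100% = DMSO vehicle control viability.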

## Cn1ncnc1C1c2n[nH]c(=O)c3cc(F)cc(c23)NC1c1ccc(F)cc1 (stereo not given) + NC1CCC(NC2CC2c2ccccc2)CC1
Second compound 0.1 µM
  IC50: > 100 nM
Second compound 0.316 µM
  IC50: > 100 nM
Second compound 1 µM
  IC50: > 100 nM
Second compound 3.16 µM
  IC50: > 100 nM
Second compound 10 µM
  IC50: > 100 nM
Second compound 0.1 µM, first compound 0.000316 µM
  viability, T/C: 82.5%
Second compound 0.1 µM, first compound 0.001 µM
  viability, T/C: 87.7%
Second compound 0.1 µM, first compound 0.00316 µM
  viability, T/C: 89%
Second compound 0.1 µM, first compound 0.01 µM
  viability, T/C: 91.2%
Second compound 0.1 µM, first compound 0.0316 µM
  viability, T/C: 87.9%
Second compound 0.1 µM, first compound 0.1 µM
  viability, T/C: 98.5%
Second compound 0.316 µM, first compound 0.000316 µM
  viability, T/C: 84.7%
Second compound 0.316 µM, first compound 0.001 µM
  viability, T/C: 90.9%
Second compound 0.316 µM, first compound 0.00316 µM
  viability, T/C: 95.7%
Second compound 0.316 µM, first compound 0.01 µM
  viability, T/C: 79.1%
Second compound 0.316 µM, first compound 0.0316 µM
  viability, T/C: 93.3%
Second compound 0.316 µM, first compound 0.1 µM
  viability, T/C: 105%
Second compound 1 µM, first compound 0.000316 µM
  viability, T/C: 97.5%
Second compound 1 µM, first compound 0.001 µM
  viability, T/C: 88.7%
Second compound 1 µM, first compound 0.00316 µM
  viability, T/C: 94.3%
Second compound 1 µM, first compound 0.01 µM
  viability, T/C: 83.8%
Second compound 1 µM, first compound 0.0316 µM
  viability, T/C: 90.7%
Second compound 1 µM, first compound 0.1 µM
  viability, T/C: 97.9%
Second compound 3.16 µM, first compound 0.000316 µM
  viability, T/C: 101%
Second compound 3.16 µM, first compound 0.001 µM
  viability, T/C: 89.4%
Second compound 3.16 µM, first compound 0.00316 µM
  viability, T/C: 83.1%
Second compound 3.16 µM, first compound 0.01 µM
  viability, T/C: 81.2%
Second compound 3.16 µM, first compound 0.0316 µM
  viability, T/C: 82.3%
Second compound 3.16 µM, first compound 0.1 µM
  viability, T/C: 102%
Second compound 10 µM, first compound 0.000316 µM
  viability, T/C: 84.7%
Second compound 10 µM, first compound 0.001 µM
  viability, T/C: 82.8%
Second compound 10 µM, first compound 0.00316 µM
  viability, T/C: 83.2%
Second compound 10 µM, first compound 0.01 µM
  viability, T/C: 77%
Second compound 10 µM, first compound 0.0316 µM
  viability, T/C: 73.7%
Second compound 10 µM, first compound 0.1 µM
  viability, T/C: 81.5%

## NS(=O)(=O)OCC1CC(n2ccc3c(NC4CCc5ccccc54)ncnc32)CC1O (stereo not given) + NC1CCC(NC2CC2c2ccccc2)CC1
Second compound 0.1 µM
  IC50: 621 nM
Second compound 0.316 µM
  IC50: 658 nM
Second compound 1 µM
  IC50: 629 nM
Second compound 3.16 µM
  IC50: 471 nM
Second compound 10 µM
  IC50: 819 nM
[1]
  viability, T/C: 98.5%
[2]
  viability, T/C: 114%
[3]
  viability, T/C: 92.1%
[4]
  viability, T/C: 67.2%
[5]
  viability, T/C: 40.5%
[6]
  viability, T/C: 33.1%
[7]
  viability, T/C: 112%
[8]
  viability, T/C: 96.2%
[9]
  viability, T/C: 84.2%
[10]
  viability, T/C: 67.3%
[11]
  viability, T/C: 37.4%
[12]
  viability, T/C: 37%
[13]
  viability, T/C: 106%
[14]
  viability, T/C: 107%
[15]
  viability, T/C: 85.5%
[16]
  viability, T/C: 72.4%
[17]
  viability, T/C: 35.3%
[18]
  viability, T/C: 32.2%
[19]
  viability, T/C: 101%
[20]
  viability, T/C: 119%
[21]
  viability, T/C: 90.1%
[22]
  viability, T/C: 64.3%
[23]
  viability, T/C: 29.8%
[24]
  viability, T/C: 22.2%
[25]
  viability, T/C: 107%
[26]
  viability, T/C: 107%
[27]
  viability, T/C: 92.8%
[28]
  viability, T/C: 79.5%
[29]
  viability, T/C: 44.4%
[30]
  viability, T/C: 26%

## O=C(C=Cc1cccc(S(=O)(=O)Nc2ccccc2)c1)NO + NC1CCC(NC2CC2c2ccccc2)CC1
Second compound 0.1 µM
  IC50: 580 nM
Second compound 0.316 µM
  IC50: 678 nM
Second compound 1 µM
  IC50: 562 nM
Second compound 3.16 µM
  IC50: 483 nM
Second compound 10 µM
  IC50: 408 nM
[1]
  viability, T/C: 82.7%
[2]
  viability, T/C: 90.2%
[3]
  viability, T/C: 96%
[4]
  viability, T/C: 75.3%
[5]
  viability, T/C: 30.4%
[6]
  viability, T/C: 2.19%
[7]
  viability, T/C: 69.6%
[8]
  viability, T/C: 89.3%
[9]
  viability, T/C: 95.8%
[10]
  viability, T/C: 93.6%
[11]
  viability, T/C: 34.7%
[12]
  viability, T/C: 2.29%
[13]
  viability, T/C: 85.3%
[14]
  viability, T/C: 92.6%
[15]
  viability, T/C: 97.8%
[16]
  viability, T/C: 66.5%
[17]
  viability, T/C: 34.1%
[18]
  viability, T/C: 1.94%
[19]
  viability, T/C: 76.5%
[20]
  viability, T/C: 92.3%
[21]
  viability, T/C: 79.5%
[22]
  viability, T/C: 64.7%
[23]
  viability, T/C: 28.7%
[24]
  viability, T/C: 0.44%
[25]
  viability, T/C: 73.9%
[26]
  viability, T/C: 77.6%
[27]
  viability, T/C: 82.2%
[28]
  viability, T/C: 52.3%
[29]
  viability, T/C: 29.9%
[30]
  viability, T/C: 0.47%
